Measurements as given in patent US20120213855A1, “DOSAGE FORMS FOR WEAKLY IONIZABLE COMPOUNDS” (CIMA LABS INC., priority 2011, published 2012).

Columns and labels:
[1] = In vitro dissolution in 900 mL DI water, USP type 2 apparatus (Example 3); type: physicochemical; details: 37° C., 50 rpm, 15 mg meloxicam, when introduced to the dissolution medium
Description: Dissolution was performed in 900 mL of DI water. Dissolution studies were conducted in a USP type 2 apparatus (Varian Inc., Cary, N.C.). Paddle speed and bath temperature were set to 50 rpm and 37° C., respectively. Samples (5 mL) were withdrawn at 5, 10, 15, 30, 45, and 60 minutes and analyzed by UV spectroscopic methods at 360 nm (Varian Cary, Australia). Dissolution experiment was performed in duplicates unless otherwise specified.

[2] = In vivo human study, pharmacokinetics in healthy volunteers (Example 7)
Description: The study consisted of a total of eighteen healthy adult volunteers (male and female). Testing was conducted over three phases, with a minimum fourteen day washout period between each phase of the study. Test formulation A and C were randomly dosed during phases 1 and 2, while test formulation B was dosed entirely during phase 3. […] Each formulation was administered as a single dose, with approximately 240 mL of room temperature water.
Twenty-seven blood samples per subject per phase were collected at various time points over the course of 96 hours following dosing. Pharmacokinetic sampling occurred within 90 minutes prior to dosing (0 hour) and after dose administration at 0.5, 1, 1.5, 2, 2.5, 3, 3.5, 4, 4.5, 5, 5.5, 6, 6.5, 7, 7.5, 8, 8.5, 9, 9.5, 10, 12, 16, 24, 48, 72, and 96 hours. The samples were stored at room temperature for about 1 hour or until being processed for serum. The samples were centrifuged at 3000 RPM for 10 minutes at 4° C. (±10° C.). Serum samples were stored at −20±10° C. until analyzed.
The samples were evaluated using a validated bioanalytical method and according to the Bioanalytical Laboratory's Standard Operating Procedures and FDA guidelines.

[3] = In vivo dog study, serum pharmacokinetics by LC/MS/MS (Example 4)
Description: Both formulations were administered orally.
For each formulation 4 or 5 dogs were studied. Prior to administration, the animals were fasted overnight and approximately 2 hours post-dose, the animals had access to regular rations for the remaining portion of the study. The animals were dosed multiple times over the course of the study with at least a two-week recovery period between dosing phases. Each formulation was administered as a single dose, with the intravenous dosages occurring in the cephalic vein.
Blood samples were collected from the cephalic or saphenous veins. The samples were stored at room temperature for about 1 hour or until being processed for serum. The samples were centrifuged at 3200 RPM for 10 minutes at 22-26° C. Serum samples were stored at 4±5° C. until analyzed.
The samples were evaluated using LC/MS/MS.

In the case of `Cc1cnc(NC(=O)C2=C(O)c3ccccc3S(=O)(=O)N2C)s1` [Meloxicam, 4-hydroxy-2-methyl-N-(5-methyl-2-thiazolyl)-2H-1,2-benzothiazine-3-carboxamide-1,1-dioxide], the “meloxicam dissolved in water” value [1] is reported as 12%, the elimination phase [2] is reported as “slow elimination phase” and the elimination phase [3] is reported as “slow elimination phase”.
